In patent US12503452B2 (Curza Global, LLC, priority 2019, dated 2025):
Where a name gives a salt, the structure may show the parent alone. Read-outs that look alike come from different tables or passages of the source.

What was measured:
[1] = target: Rabbit Reticulocyte Lysate (eukaryotic protein synthesis); experiment: Rabbit reticulocyte lysate luciferase assay (inhibition of eukaryotic protein synthesis); assay type: biochemical; details: read-out: Rabbit reticulocyte IC50 (μM/% inhib.)
Procedure, shortened: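 Nuclease-treated rabbit reticulocyte lysate translating luciferase control RNA, with complete amino acids, was incubated at 30° C. for 90 minutes with 2-fold serial compound dilutions. Luminescence was measured after adding luciferase reagent. % inhibition was relative to water controls, with no-RNA wells as background.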

[2] = tested on: E. coli S30 extract (bacterial protein synthesis); experiment: E. coli S30 extract coupled transcription-translation luciferase assay (inhibition of bacterial protein synthesis); assay type: biochemical; details: read-out: S30 IC50 (μM/% inhib.)
Procedure, shortened: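 Cell-free coupled transcription-translation in E. coli S30 circular-DNA extract, with pBESTluc plasmid as template and complete amino acid mix. Eight 2-fold compound dilutions were incubated with the extract 1 h at 37 °C, chilled, then luciferase luminescence was read. % inhibition was taken relative to no-inhibitor wells; no-DNA wells gave background.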

[3] = tested on: E. coli (Ec); experiment: Broth microdilution minimum inhibitory concentration (MIC); assay type: cell-based; details: Escherichia coli, read-out: E. coli + bicarb MIC
Procedure, shortened: (§1)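 Following CLSI M07-A9 with minor changes, growth medium was cation-adjusted Mueller-Hinton broth, alone or supplemented with bicarbonate (6.25 or 25 mM) or heat-inactivated human serum up to 50%. Each compound was tested over eight two-fold dilutions against 5×10^4 CFU per well.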

[4] = tested on: P. aeruginosa (Pa); experiment: as above; assay type: cell-based; details: Pseudomonas aeruginosa, read-out: Pa MIC + bicarb
Procedure, shortened: as §1

[5] = tested on: A. baumannii (Ab); experiment: as above; assay type: cell-based; details: Acinetobacter baumannii, read-out: Ab + bicarb MIC
Procedure, shortened: as §1

[6] = tested on: S. aureus (Sa); experiment: as above; assay type: cell-based; details: Staphylococcus aureus, read-out: Sa + bicarb MIC
Procedure, shortened: as §1

[7] = tested on: E. faecalis (Ef); experiment: as above; assay type: cell-based; details: Enterococcus faecalis, read-out: Ef + bicarb MIC
Procedure, shortened: as §1

[8] = class by IC50 or % inhibition @ 1 μM
[9] = E. coli, growth medium with sodium bicarbonate
[10] = P. aeruginosa, growth medium with sodium bicarbonate
[11] = A. baumannii, growth medium with sodium bicarbonate
[12] = S. aureus, growth medium with sodium bicarbonate
[13] = E. faecalis, growth medium with sodium bicarbonate
[14] = E. coli, growth medium supplemented with sodium bicarbonate
[15] = P. aeruginosa, growth medium supplemented with sodium bicarbonate
[16] = A. baumannii, growth medium supplemented with sodium bicarbonate
[17] = S. aureus, growth medium supplemented with sodium bicarbonate
[18] = E. faecalis, growth medium supplemented with sodium bicarbonate

| SMILES | IC50 [1, 8] | IC50 [2, 8] | MIC [3] | MIC [4] | MIC [5] | MIC [6] | MIC [7] | IC50 ([1]; % inhibition @ 1 μM) | IC50 ([2]; % inhibition @ 1 μM) | MIC [3, 9] | MIC [4, 10] | MIC [5, 11] | MIC [6, 12] | MIC [7, 13] | MIC [3, 14] | MIC [4, 15] | MIC [5, 16] | MIC [6, 17] | MIC [7, 18] |
| --- | --- | --- | --- | --- | --- | --- | --- | --- | --- | --- | --- | --- | --- | --- | --- | --- | --- | --- | --- |
| NC1CCCN(CCc2ccc(-n3ccc(NC(=O)N4CCN(C(=O)C5CCCN5)CC4)nc3=O)cc2)CC1 (centres unmarked) [Compound 310, hydrochloride salt] | > 1 µM | 0.5 to 1 µM | < 8 mg/L | > 32 mg/L | > 32 mg/L | 8 to 32 mg/L | > 32 mg/L |  |  |  |  |  |  |  |  |  |  |  |  |
| CC(C)(N)C(=O)N1CCN(C(=O)Nc2ccn(-c3ccc(CN4CCCC(N)CC4)cc3)c(=O)n2)CC1 (centres unmarked) [Compound 365, hydrochloride salt] |  |  | < 8 mg/L | > 32 mg/L | > 32 mg/L | < 8 mg/L | < 8 mg/L | > 1 µM | < 0.5 µM |  |  |  |  |  |  |  |  |  |  |
| NC1CCN(Cc2ccc(-n3ccc(NC(=O)N4C[C@H]5C[C@@H](N)C[C@H]5C4)nc3=O)cc2)CC1 [Compound 295, trifluoroacetate salt] | > 1 µM | > 1 µM | > 32 mg/L | > 32 mg/L | > 32 mg/L | > 32 mg/L | > 32 mg/L |  |  |  |  |  |  |  |  |  |  |  |  |
| CCN(Cc1ccc(-n2ccc(NC(=O)N3CCN(C(=O)C(C)(C)N)CC3)nc2=O)cc1Cl)C1CCC(N)CC1 (centres unmarked) [Compound 273] | > 1 µM | < 0.5 µM |  |  |  |  |  |  |  | < 8 mg/L | 8 to 32 mg/L | < 8 mg/L | < 8 mg/L | < 8 mg/L |  |  |  |  |  |
| CC(CNC1CNC1)Oc1ccc(-n2ccc(NC(=O)N3CCN(C(=O)C(C)(C)N)CC3)nc2=O)cc1 (centres unmarked) [Compound 183] | > 1 µM | > 1 µM |  |  |  |  |  |  |  | > 32 mg/L | > 32 mg/L | > 32 mg/L | > 32 mg/L | > 32 mg/L |  |  |  |  |  |
| CCN(Cc1ccc(-n2ccc(NC(=O)N3CCN(C(=O)C(C)(C)N)CC3)nc2=O)cc1)[C@H]1CC[C@H](N)C(C)C1 (some centres unmarked) [Compound 338, hydrochloride salt] | > 1 µM | < 0.5 µM | < 8 mg/L | > 32 mg/L | > 32 mg/L | < 8 mg/L | 8 to 32 mg/L |  |  |  |  |  |  |  |  |  |  |  |  |
| CCN(Cc1ccc(-n2ccc(NC(=O)N3CCN(C(=O)[C@H](C)N)CC3)nc2=O)cc1)C1CCC(N)CC1 (some centres unmarked) [Compound 357] |  |  |  |  |  |  |  | > 1 µM | < 0.5 µM | < 8 mg/L | > 32 mg/L | > 32 mg/L | < 8 mg/L | 8 to 32 mg/L |  |  |  |  |  |
| CC(CN1CCC[C@H](N)CC1)c1ccc(-n2ccc(NC(=O)N3CCN(C(=O)C(C)(C)N)CC3)nc2=O)cc1 (some centres unmarked) [Compound 290] | > 1 µM | 0.5 to 1 µM |  |  |  |  |  |  |  | < 8 mg/L | > 32 mg/L | < 8 mg/L | < 8 mg/L | < 8 mg/L |  |  |  |  |  |
| CN(Cc1ccc(-n2ccc(NC(=O)N3CCN(C(=O)C(C)(C)N)CC3)nc2=O)cc1)C1CC(N)CC(O)C1 (centres unmarked) [Compound 343, hydrochloride salt] | > 1 µM | 0.5 to 1 µM | 8 to 32 mg/L | > 32 mg/L | > 32 mg/L | > 32 mg/L | > 32 mg/L |  |  |  |  |  |  |  |  |  |  |  |  |
| CN(Cc1ccc(-n2ccc(NC(=O)N3CCN(C(=O)C(C)(C)N)CC3)nc2=O)cc1)[C@H]1CC[C@H](N)CC1 [Compound 118] | > 1 µM | < 0.5 µM |  |  |  |  |  |  |  |  |  |  |  |  | < 8 mg/L | 8 to 32 mg/L | 8 to 32 mg/L | < 8 mg/L | < 8 mg/L |
| CC(C)(N)C(=O)N1CCN(C(=O)Nc2ccn(-c3ccc(CN(CC4CC4)C4CCC(N)CC4)c(OC(F)(F)F)c3)c(=O)n2)CC1 (centres unmarked) [Compound 331, hydrochloride salt] | > 1 µM | < 0.5 µM | < 8 mg/L | > 32 mg/L | > 32 mg/L | 8 to 32 mg/L | 8 to 32 mg/L |  |  |  |  |  |  |  |  |  |  |  |  |
| CC(Cc1ccc(-n2ccc(NC(=O)N3CCN(C(=O)C(C)(C)N)CC3)nc2=O)cc1)N1CCC(C2CNC2)CC1 (centres unmarked) [Compound 379] |  |  |  |  |  |  |  | > 1 µM | > 1 µM | < 8 mg/L | > 32 mg/L | > 32 mg/L | < 8 mg/L | > 32 mg/L |  |  |  |  |  |
| NC1CCCN(CCc2ccc(-n3ccc(NC(=O)N4CC5(CCC5N)C4)nc3=O)cc2)CC1 (centres unmarked) [Compound 195] | > 1 µM | 0.5 to 1 µM |  |  |  |  |  |  |  | > 32 mg/L | > 32 mg/L | > 32 mg/L | 8 to 32 mg/L | > 32 mg/L |  |  |  |  |  |
| CC(C)(N)C(=O)N1CCN(C(=O)Nc2ccn(-c3ccc(CN[C@@H]4CC[C@H](N)C4)cc3)c(=O)n2)CC1 [Compound 114] | > 1 µM | < 0.5 µM |  |  |  |  |  |  |  |  |  |  |  |  | < 8 mg/L | > 32 mg/L | > 32 mg/L | > 32 mg/L | > 32 mg/L |
